Experimental findings from ChEMBL document CHEMBL1201862, “PubChem BioAssay data set” (2004) are described below.

The target of assay [1] is T1, Delta-type opioid receptor (Homo sapiens, UniProt P41143). Kind of assay: HTS Image-Based Screen for Antagonists of the DOR Receptor. [Related pubchem assays (depositor defined):AID1777, AID1785, AID1786, AID2133]. The class given is functional.
The target in assay [2] is Mu-type opioid receptor (Homo sapiens, UniProt P35372). The experiment in a line: HTS Image-Based Screen for Agonists of the MOR Receptor. [Related pubchem assays (depositor defined):AID1777, AID1785, AID1786, AID2133]. Format: functional.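 Also: imaging of beta-arrestin GFP recruitment into spots after receptor activation.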
Assay [3] has as its target T1, Delta-type opioid receptor. The experiment in a line: HTS Image-Based Screen for Agonists of the DOR Receptor. [Related pubchem assays (depositor defined):AID1777, AID1786, AID2133]. Format: functional.
Assay [4] deals with Kappa-type opioid receptor (Homo sapiens, UniProt P41145). The class given is functional.
Assay [5] in a line: loss of viability in HepG2 cells – cell-based, CellTiter-Glo, cherry-picked, cytotoxicity control for Shn3 inhibitor project, dose response (AID 624134). Format: functional. (ATP-based viability assays read luminescence as a measure of living cells.)
Assay [6] can be described thus: Luminescence Cell-Based Dose Response HTS to Identify Inhibitors of 5'UTR Stem-Loop Driven Prion Protein mRNA Translation in H4 Neuroglioblastoma Cells. [Related pubchem assays: 1827 (Project Summary), 1813 (Primary HTS)]. Format: functional.
Assay [7] has as its target Heat shock protein HSP 90-alpha (Homo sapiens, UniProt P07900). Format: functional, organism-based.
For assay [8], the target named is T2, Mannose-6-phosphate isomerase (Homo sapiens, UniProt P34949).
T2 sequence (P34949 whole entry): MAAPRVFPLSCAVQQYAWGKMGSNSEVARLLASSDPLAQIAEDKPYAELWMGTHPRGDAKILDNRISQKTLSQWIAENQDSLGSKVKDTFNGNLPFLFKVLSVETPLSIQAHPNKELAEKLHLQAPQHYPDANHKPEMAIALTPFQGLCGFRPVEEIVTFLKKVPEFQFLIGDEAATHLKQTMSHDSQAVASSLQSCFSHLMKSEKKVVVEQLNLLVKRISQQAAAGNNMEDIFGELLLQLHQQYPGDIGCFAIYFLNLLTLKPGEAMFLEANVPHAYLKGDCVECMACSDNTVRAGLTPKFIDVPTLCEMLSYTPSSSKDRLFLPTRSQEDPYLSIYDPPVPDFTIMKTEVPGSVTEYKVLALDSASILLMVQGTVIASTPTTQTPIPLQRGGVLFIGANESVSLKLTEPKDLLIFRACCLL
Kind of assay: MPI inhibition at elevated mannose 6-phosphate – biochemical, fluorescence intensity, high mannose 6-phosphate, primary screen (AID 1220).

Assay [9] can be described thus: microbe, parasite or virus in culture. Format: functional. The settings on record: Mycobacterium tuberculosis.
Assay [10] has as its target Protein-tyrosine kinase 2-beta (Homo sapiens, UniProt Q14289).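 Also: potency of inhibitors of PYK2 kinase phosphorylation of poly-GT substrate.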
The nature of assay [11]: off-target signal loss in HeLa-CEM21 co-culture – HeLa F-luc CTL cells, cherry-picked, counter-screen for HIV-1 Env fusion inhibitor project, dose response (AID 652040).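 Also: potency for signal decrease marking cytotoxic or nonspecific inhibition.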 Format: functional, cell-based.
Assay [12] addresses 1-phosphatidylinositol 4,5-bisphosphate phosphodiesterase beta-3 (Homo sapiens, UniProt Q01970). Kind of assay: Fluorescence-based biochemical high throughput dose response assay to identify inhibitors of phospholipase C isozymes (PLC-B3).
Assay [13] in a line: decrease of insulin promoter-GFP reporter – imaging, high-content screening, mouse beta cells (AID 1628). Format: functional. The settings on record: MIN6.
Assay [14] is described as follows: MIN6 cell viability loss – mouse insulinoma, cytotoxicity control, dose response (AID 2122).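 Also: confirmatory high-throughput counterscreen run to flag cytotoxic compounds.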 Format: functional.
The nature of assay [15]: mitochondrial function rescue without frataxin homolog – Friedreich's ataxia, plus single-dose screen, dose response (AID 1465).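 Also: yeast depleted of Yfh1p frataxin homolog grown on glycerol needing respiration; WST-1 tetrazolium dye reduction as measure of cellular dehydrogenase metabolic activity.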 The class given is functional.
Assay [16] deals with A-375. The experiment in a line: MITF: Counter assay: A375 proliferation Measured in Cell-Based System Using Plate Reader - 2084-03_Inhibitor_Dose_DryPowder_Activity. [Related pubchem assays (depositor defined):AID488944]. Format: functional. The settings on record: Homo sapiens.
In assay [17] the target is SUMO-activating enzyme (Homo sapiens, UniProt Q9UBT2). The experiment in a line: blockers of UBC9-mediated SUMO conjugation – biochemical, AlphaScreen, SUMOylation inhibitor project, confirmation (AID 2018). The class given is functional. On the technique in general: Alpha assays give light when donor and acceptor beads are brought close together.
In assay [18] the target is SUMO E1/E2 (Homo sapiens, UniProt P63279+Q9UBE0+Q9UBT2). The experiment in a line: SAR analysis of SUMOylation using HTRF in an in-Vitro dose response assay. [Related pubchem assays (depositor defined):AID2006, AID2011, AID2018, AID2069, AID2658]. Format: functional.
In assay [19] the target is T3, Caspase-6 (Homo sapiens, UniProt P55212).
T3 sequence (P55212 whole entry): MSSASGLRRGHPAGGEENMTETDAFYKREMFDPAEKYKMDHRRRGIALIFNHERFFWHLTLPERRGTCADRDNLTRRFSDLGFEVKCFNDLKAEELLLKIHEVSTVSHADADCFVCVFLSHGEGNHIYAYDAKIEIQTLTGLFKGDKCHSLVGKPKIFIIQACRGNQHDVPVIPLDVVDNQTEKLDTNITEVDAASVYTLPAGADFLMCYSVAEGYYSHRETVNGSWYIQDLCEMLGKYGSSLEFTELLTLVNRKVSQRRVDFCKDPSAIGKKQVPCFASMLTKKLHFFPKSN
The experiment in a line: inhibition of CASP6 peptide cleavage – biochemical, VEID-R110 fluorescence, cherry-pick, dose response (AID 720632).

As usually defined, the IC50 is the concentration that gives 50% inhibition. One may read the EC50 as the concentration at which the effect is half-maximal. The term AC50 denotes the midpoint of the concentration-response curve, whichever way the signal moves.

Molecules are shown by their SMILES. Active and inactive are the calls of the source. A value given as a limit tells only on which side of the number the result lay.

T1 sequence (P41143 whole entry): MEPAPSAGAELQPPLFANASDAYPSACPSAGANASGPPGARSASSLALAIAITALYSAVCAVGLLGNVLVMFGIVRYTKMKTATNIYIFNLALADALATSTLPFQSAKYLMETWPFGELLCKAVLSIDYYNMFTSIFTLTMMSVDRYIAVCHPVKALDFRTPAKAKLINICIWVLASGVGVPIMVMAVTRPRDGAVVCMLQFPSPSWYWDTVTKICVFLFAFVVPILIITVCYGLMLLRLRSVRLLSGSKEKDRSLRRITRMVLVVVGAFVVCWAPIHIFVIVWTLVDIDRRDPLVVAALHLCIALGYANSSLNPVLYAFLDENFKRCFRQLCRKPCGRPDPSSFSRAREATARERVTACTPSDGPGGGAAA
SUMO-activating enzyme, sequence (Q9UBE0 whole entry): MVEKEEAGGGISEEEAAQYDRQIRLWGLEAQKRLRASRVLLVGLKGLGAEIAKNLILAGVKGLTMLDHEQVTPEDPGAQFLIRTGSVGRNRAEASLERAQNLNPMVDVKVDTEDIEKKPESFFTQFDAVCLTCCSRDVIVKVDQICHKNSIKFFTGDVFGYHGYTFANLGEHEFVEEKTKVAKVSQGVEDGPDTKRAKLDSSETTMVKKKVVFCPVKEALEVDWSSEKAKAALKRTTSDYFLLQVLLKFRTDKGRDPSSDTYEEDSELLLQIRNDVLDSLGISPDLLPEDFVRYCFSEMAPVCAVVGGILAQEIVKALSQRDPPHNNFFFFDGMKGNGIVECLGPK
SUMO-activating enzyme, sequence (Q9UBT2 whole entry): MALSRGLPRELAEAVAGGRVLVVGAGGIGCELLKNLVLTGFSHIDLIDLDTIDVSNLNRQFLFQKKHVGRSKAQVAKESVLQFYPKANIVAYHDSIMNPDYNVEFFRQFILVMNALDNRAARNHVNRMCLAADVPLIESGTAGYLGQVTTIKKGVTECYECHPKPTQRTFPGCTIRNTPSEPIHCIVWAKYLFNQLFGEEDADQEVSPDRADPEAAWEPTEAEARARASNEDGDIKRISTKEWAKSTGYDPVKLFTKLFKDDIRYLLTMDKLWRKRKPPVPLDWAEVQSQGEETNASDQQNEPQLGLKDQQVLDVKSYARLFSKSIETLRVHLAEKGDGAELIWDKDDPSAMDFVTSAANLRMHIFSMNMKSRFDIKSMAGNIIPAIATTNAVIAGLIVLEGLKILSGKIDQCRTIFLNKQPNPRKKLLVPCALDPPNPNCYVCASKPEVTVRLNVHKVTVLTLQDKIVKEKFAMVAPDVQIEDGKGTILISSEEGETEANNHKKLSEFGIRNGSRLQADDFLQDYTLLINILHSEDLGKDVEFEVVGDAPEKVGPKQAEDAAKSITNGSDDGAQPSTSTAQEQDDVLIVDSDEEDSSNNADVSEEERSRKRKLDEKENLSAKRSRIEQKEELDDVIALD
SUMO E1/E2, sequence (Q9UBE0 whole entry): as the sequence (Q9UBE0 whole entry) above
SUMO E1/E2, sequence (Q9UBT2 whole entry): as the sequence (Q9UBT2 whole entry) above
SUMO E1/E2, sequence (P63279 whole entry): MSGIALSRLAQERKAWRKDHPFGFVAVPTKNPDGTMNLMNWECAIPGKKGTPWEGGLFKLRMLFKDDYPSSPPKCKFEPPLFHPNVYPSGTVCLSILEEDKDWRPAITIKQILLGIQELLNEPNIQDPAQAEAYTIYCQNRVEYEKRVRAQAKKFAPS
Mu-type opioid receptor, sequence (P35372 whole entry): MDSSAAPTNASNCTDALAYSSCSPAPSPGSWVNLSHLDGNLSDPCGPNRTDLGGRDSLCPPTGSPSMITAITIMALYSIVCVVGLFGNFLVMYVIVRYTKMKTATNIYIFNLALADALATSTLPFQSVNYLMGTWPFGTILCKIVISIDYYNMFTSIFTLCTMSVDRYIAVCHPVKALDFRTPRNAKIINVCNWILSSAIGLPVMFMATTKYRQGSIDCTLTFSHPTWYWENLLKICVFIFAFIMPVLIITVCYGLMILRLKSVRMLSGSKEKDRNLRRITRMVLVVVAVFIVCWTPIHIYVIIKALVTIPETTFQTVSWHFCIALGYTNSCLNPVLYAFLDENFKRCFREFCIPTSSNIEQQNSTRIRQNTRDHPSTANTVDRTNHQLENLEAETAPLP
Kappa-type opioid receptor, sequence (P41145 whole entry): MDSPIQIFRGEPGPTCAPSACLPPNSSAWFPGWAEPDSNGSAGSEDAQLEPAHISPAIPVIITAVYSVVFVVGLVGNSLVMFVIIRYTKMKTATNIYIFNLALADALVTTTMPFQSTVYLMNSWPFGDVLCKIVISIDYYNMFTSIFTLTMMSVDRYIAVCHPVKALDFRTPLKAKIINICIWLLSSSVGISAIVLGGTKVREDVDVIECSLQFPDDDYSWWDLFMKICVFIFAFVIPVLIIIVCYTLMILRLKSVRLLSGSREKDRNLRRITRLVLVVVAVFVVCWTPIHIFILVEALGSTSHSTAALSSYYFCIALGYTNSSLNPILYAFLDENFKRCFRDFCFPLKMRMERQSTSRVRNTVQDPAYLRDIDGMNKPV
Protein-tyrosine kinase 2-beta, sequence (Q14289 whole entry, the tested form may be a part): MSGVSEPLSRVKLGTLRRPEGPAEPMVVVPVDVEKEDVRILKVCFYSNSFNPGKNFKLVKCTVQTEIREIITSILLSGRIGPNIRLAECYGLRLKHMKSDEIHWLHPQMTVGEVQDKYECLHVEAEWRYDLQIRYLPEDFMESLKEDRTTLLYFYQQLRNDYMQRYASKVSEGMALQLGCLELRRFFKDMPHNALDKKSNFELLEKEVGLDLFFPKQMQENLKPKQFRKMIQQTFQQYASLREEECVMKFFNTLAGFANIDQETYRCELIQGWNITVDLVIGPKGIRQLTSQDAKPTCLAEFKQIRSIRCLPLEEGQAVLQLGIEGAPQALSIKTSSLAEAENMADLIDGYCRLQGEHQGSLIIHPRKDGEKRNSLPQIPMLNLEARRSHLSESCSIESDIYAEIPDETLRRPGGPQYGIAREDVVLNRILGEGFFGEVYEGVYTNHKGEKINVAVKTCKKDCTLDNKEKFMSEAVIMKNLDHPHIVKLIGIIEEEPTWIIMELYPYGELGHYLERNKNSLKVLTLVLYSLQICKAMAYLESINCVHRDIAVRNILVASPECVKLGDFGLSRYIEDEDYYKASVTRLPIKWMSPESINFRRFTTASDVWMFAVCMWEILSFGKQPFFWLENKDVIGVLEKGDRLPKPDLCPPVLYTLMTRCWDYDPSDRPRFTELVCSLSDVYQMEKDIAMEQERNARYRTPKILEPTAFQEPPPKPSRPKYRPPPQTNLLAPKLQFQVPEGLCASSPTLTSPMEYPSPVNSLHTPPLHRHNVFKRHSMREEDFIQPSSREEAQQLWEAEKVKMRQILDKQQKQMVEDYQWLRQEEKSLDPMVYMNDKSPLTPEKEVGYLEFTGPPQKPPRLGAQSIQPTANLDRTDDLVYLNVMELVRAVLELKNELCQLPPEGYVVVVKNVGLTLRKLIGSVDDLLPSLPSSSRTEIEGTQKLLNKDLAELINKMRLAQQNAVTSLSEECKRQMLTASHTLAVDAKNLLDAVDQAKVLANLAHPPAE
1-phosphatidylinositol 4,5-bisphosphate phosphodiesterase beta-3, sequence (Q01970 whole entry): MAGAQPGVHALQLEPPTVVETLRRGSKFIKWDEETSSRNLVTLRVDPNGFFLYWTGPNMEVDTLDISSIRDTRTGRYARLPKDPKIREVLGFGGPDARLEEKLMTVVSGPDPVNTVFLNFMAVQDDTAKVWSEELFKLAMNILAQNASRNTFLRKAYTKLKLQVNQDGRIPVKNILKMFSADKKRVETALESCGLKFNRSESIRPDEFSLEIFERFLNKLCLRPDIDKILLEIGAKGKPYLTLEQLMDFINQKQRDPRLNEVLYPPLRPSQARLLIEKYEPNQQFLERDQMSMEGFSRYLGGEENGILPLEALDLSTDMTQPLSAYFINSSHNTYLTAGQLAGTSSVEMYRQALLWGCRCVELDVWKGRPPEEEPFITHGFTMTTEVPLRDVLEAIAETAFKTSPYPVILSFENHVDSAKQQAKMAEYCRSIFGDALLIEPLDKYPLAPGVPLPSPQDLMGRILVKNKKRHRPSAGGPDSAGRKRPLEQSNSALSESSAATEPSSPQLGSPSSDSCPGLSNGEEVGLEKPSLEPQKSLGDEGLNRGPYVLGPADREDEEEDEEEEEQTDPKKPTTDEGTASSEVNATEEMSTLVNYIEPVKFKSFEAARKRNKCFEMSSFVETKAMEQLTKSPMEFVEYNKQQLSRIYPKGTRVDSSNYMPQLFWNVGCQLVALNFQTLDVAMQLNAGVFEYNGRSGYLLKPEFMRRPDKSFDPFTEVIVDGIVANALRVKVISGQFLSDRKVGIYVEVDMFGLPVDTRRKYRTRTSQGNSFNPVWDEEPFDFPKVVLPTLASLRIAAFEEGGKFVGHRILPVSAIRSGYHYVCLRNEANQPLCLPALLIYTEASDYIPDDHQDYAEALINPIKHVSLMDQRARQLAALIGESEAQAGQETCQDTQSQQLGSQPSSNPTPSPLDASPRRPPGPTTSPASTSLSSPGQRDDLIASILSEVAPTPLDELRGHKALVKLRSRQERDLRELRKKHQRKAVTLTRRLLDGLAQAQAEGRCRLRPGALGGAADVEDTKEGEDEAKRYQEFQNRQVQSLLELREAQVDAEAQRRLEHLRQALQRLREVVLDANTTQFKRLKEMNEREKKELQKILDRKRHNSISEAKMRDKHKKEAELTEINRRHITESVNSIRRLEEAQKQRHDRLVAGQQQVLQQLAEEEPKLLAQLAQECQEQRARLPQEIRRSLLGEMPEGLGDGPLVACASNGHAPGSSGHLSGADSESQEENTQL

With `CCC(=O)OCCNc1cc(Sc2nccn2C)c2nonc2c1[N+](=O)[O-]`, the values for the IC50 in [1] and in [4] were 29.7 µM (inactive) and 4.05 µM (active), respectively. In addition, the EC50 in assay [2] and in assay [3] was > 32 µM (inactive) throughout. Moreover, the AC50 in [5] was 16.1 µM (active).

For the molecule `O=C1c2cc(F)ccc2-n2c1nc1ccccc1c2=O`, the EC50 in assay [6] is on record as > 120 µM (not active). The AC50 in assay [7] is 3.73 µM (active).

In the case of `CCOC(=O)C1=C(c2ccc(OC)cc2)C(=O)c2ccccc2C1=O`, the IC50 in assay [8] is reported as > 50 µM (not active).

As for `O=C1C(=O)c2ccccc2-c2ccccc21` [9,10-PHENANTHRENEQUINONE], the CC50 in assay [9] is 2.33 µM (active). The IC50 in [10] is > 69.5 µM (not active); in [12], > 122 µM (inactive). For the same molecule, in [11], the AC50 was 3.04 µM (active).

Turning to `O=C1C=C(N(CCO)Cc2ccccc2)c2ccccc2C1=O`, the IC50 in assay [13] is 5.11 µM (active); in [14] it was 3.71 µM (active). For the same molecule, in assay [15], the EC50 was > 100 µM (active). Also, the AC50 in assay [16] was 37.8 µM (active).

On to `CCCCn1c(NC(=O)c2ccccc2Cl)c(C#N)c2nc3ccccc3nc21`, for which the results for the IC50 in [17] and in [18] were 0.89 µM (active) and 10.9 µM (active), respectively. Also, the half-maximal activity concentration (AC50) in assay [19] was 14.1 µM (active).
